Results from patent US20260184663A1, “INDENE COMPOUNDS, PHARMACEUTICAL COMPOSITIONS THEREOF, AND THEIR THERAPEUTIC APPLICATIONS” (NucMito Pharmaceuticals co. Ltd., priority 2022, published 2026).

Assays:
Type in all cases: cell-based
[1] = tested on: alpha-smooth muscle actin (α-SMA); assay: Inhibition of TGF-β induced expression of alpha-smooth muscle actin (α-SMA) in CFSC cells (western blot); conditions: compound at 10 μM, TGF-β (10 ng/mL), 24 hours, band intensity vs TGF-β only
Experimental: The ability of a compound to inhabit the TGF-β induced expression of alpha-smooth muscle actin (α-SMA) was evaluated in CCl4-treated fat storing (CFSC) cells. α-SMA is considered as a reliable marker of hepatic stellate cell activation and a key biomarker for liver fibrosis.
CFSC cells maintained in a DMEM medium supplemented with 10% fetal bovine serum were seeded to 12-well culture dishes and grown to a confluence of 60-70% the next day. Culture was changed to a serum-free DMEM medium, and the cells were treated with a compound at 10 μM in the presence of TGF-β (10 ng/mL). The cells were incubated for another 24 hours. All culture was maintained at 37° C. in 5% carbon dioxide.
An NP-40 lysate solution (50 mM Tris (pH 7.4), 150 mM NaCl, 1% NP-40) with EDTA free cocktail added was used to lyse the cells on ice for 30 min. The lysate was collected and centrifuged at 4° C. for 10 min at 12,000 rpm. The pellet was discarded and the supernatant was transferred to a new tube. Cell lysates were loaded with 5× loading buffer and boiled for 10 min, resolved by 10% SDS-polyacrylamide gel electrophoresis (SDS-PAGE), and transferred to PVDF membrane. The membrane was blocked with 5% skim milk in Tris-buffered saline and TWEEN® 20 (TBST; 10 mM Tris-HCl (pH 8.0), 150 mM NaCl, 0.1% TWEEN® 20) for 1 h at room temperature and then incubated with α-SMA and β-actin antibodies overnight at 4° C. After washing twice with TBST, the membrane was probed with a horseradish […] anti-immunoglobulin (1:5000 dilution) for 1 h at room temperature. After two subsequent rinses in TBST, immunoreactive products were reacted with ECL and visualized by a UVP CHEMSTUDIO™ imaging system. The western blotting bands are quantitated using an ImageJ software. The percentage of inhibition was obtained by calculating the percentage decrease in the band intensity compared to the one treated with TGF-β only.
The results are summarized in Table 1, where A represents a value no less of 80% inhibition, B represents a value less than […] but no less than […], C represents a value less than 50% but no less than 30% inhibition, and D represents a value less than 30% inhibition with a compound at 10 μM.

[2] = tested on: MDA-MB-231 (breast cancer); assay: Antiproliferative activity (CCK-8 cell viability), MDA-MB-231; conditions: Homo sapiens, 72 h, read-out: Antiproliferative activity in cancerous cells, MDA-MB-231 (inhibition of cell growth); for inhibition at 3.3 µM: Compound concentration: 3.3 μM; for inhibition at 10 µM: Compound concentration: 10 μM
In short: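 Growth inhibition of human MDA-MB-231 breast cancer cells was assessed with a Cell Counting Kit-8. Cells cultured in DMEM plus 10% FBS were seeded at 2,000-5,000 cells/well, treated after attachment, and kept 72 h at 37° C. CCK-8 solution (10 μL) was added for 4 h, and absorbance at 450 nm was compared with DMSO-treated controls.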

[3] = tested on: HepG2 (liver cancer); assay: Antiproliferative activity (CCK-8 cell viability), HepG2; conditions: Homo sapiens, 72 h, read-out: Antiproliferative activity in cancerous cells, HepG2 (inhibition of cell growth); for inhibition at 3.3 µM: Compound concentration: 3.3 μM; for inhibition at 10 µM: Compound concentration: 10 μM
In short: (§1)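 Growth inhibition graded in bands from percent viability against DMSO vehicle, read as CCK-8 absorbance at 450 nm. Compound tested at 3.3, 10 or 30 μM for 72 h, 37 °C; media contained 10% FBS: DMEM for HepG2/SW480, MEM for HeLa, F-12K for A549.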

[4] = tested on: SW480 (colon cancer); assay: Antiproliferative activity (CCK-8 cell viability), SW480; conditions: Homo sapiens, 72 h, read-out: Antiproliferative activity in cancerous cells, SW480 (inhibition of cell growth); for inhibition at 3.3 µM: Compound concentration: 3.3 μM; for inhibition at 10 µM: Compound concentration: 10 μM
In short: as §1

[5] = tested on: B16F10 (malignant melanoma); assay: Antiproliferative activity (CCK-8 cell viability), B16F10; conditions: Mus musculus, 72 h, read-out: Antiproliferative activity in cancerous cells, B16F10 (inhibition of cell growth); for inhibition at 3.3 µM: B16-F10, Compound concentration: 3.3 μM; for inhibition at 10 µM: B16-F10, Compound concentration: 10 μM
In short: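 Cell growth inhibition was measured in B16F10 malignant melanoma cells with a Cell Counting Kit-8 viability assay. Cells were maintained in DMEM plus 10% fetal bovine serum, seeded at 2,000-5,000 cells/well in 96-well plates, and treated for 72 h at 37° C. Viability was expressed relative to DMSO-treated vehicle control wells.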

[6] = tested on: A431 (epidermoid carcinoma); assay: Antiproliferative activity (CCK-8 cell viability), A431; conditions: Homo sapiens, 72 h, read-out: Antiproliferative activity in cancerous cells, A431 (inhibition of cell growth); for inhibition at 3.3 µM: A-431, Compound concentration: 3.3 μM; for inhibition at 10 µM: A-431, Compound concentration: 10 μM
In short: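 This growth inhibition assay used A431 cells maintained in Dulbecco's modified Eagle's medium plus 10% fetal bovine serum. Cells were seeded in 96-well plates, treated with compound for 72 h at 37° C., and then given 10 μL CCK-8 solution. After a further 4 h, absorbance was read at 450 nm.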

[7] = tested on: A549 (lung adenocarcinoma); assay: Antiproliferative activity (CCK-8 cell viability), A549; conditions: Homo sapiens, 72 h, read-out: Antiproliferative activity in cancerous cells, A549 (inhibition of cell growth); for inhibition at 3.3 µM: Compound concentration: 3.3 μM; for inhibition at 10 µM: Compound concentration: 10 μM
In short: as §1

[8] = tested on: HeLa (cervical cancer); assay: Antiproliferative activity (CCK-8 cell viability), HeLa; conditions: Homo sapiens, 72 h, read-out: Antiproliferative activity in cancerous cells, HELA (inhibition of cell growth); for inhibition at 3.3 µM: Compound concentration: 3.3 μM; for inhibition at 10 µM: Compound concentration: 10 μM
In short: as §1

SMILES	inhibition at 10 µM [1]	inhibition at 3.3 µM [2]	inhibition at 10 µM [2]	inhibition at 3.3 µM [3]	inhibition at 10 µM [3]	inhibition at 3.3 µM [4]	inhibition at 10 µM [4]	inhibition at 3.3 µM [5]	inhibition at 10 µM [5]	inhibition at 3.3 µM [6]	inhibition at 10 µM [6]	inhibition at 3.3 µM [7]	inhibition at 10 µM [7]	inhibition at 3.3 µM [8]	inhibition at 10 µM [8]
O=C(O)CC1=C(Cc2ccc(C(F)(F)F)cc2)/C(=C/c2cccc(COc3ccccc3)c2)c2ccc(F)cc21 [A10, (Z)-2-(5-Fluoro-1-(3-(phenoxymethyl)benzylidene)-2-(4-(trifluoromethyl)-benzyl)-1H-inden-3-yl)acetic acid]	> 80%	≥ 50%	≥ 50%	≥ 50%	≥ 50%	≥ 50%	≥ 50%	≥ 50%	≥ 50%	≥ 50%	≥ 50%	30 to 50%	≥ 50%	≥ 50%	≥ 50%
O=C(O)CC1=C(Cc2ccc(Oc3ccc(F)cc3)cc2)/C(=C/c2cccc(COc3ccccc3)c2)c2ccc(F)cc21 [A101, (Z)-2-(5-Fluoro-2-(4-(4-fluorophenoxy)benzyl)-1-(3-(phenoxymethyl)-benzylidene)-1H-inden-3-yl)acetic acid]	> 80%	≥ 50%	≥ 50%	≥ 50%	≥ 50%	≥ 50%	≥ 50%	≥ 50%	≥ 50%	≥ 50%	≥ 50%	≥ 50%	≥ 50%	≥ 50%	≥ 50%
O=C(O)CC1=C(Cc2ccc(Oc3ccc(F)cc3)cc2)/C(=C/c2ccc(N3CCOCC3)cc2)c2ccc(F)cc21 [A102, (Z)-2-(5-Fluoro-2-(4-(4-fluorophenoxy)benzyl)-1-(4-morpholinobenzylidene)-1H-inden-3-yl)acetic acid]	> 80%	≥ 50%	≥ 50%	≥ 50%	≥ 50%	≥ 50%	≥ 50%	≥ 50%	≥ 50%	≥ 50%	≥ 50%	≥ 50%	≥ 50%	≥ 50%	≥ 50%
CC(C)c1ccc(/C=C2/C(Cc3ccc(Oc4ccc(F)cc4)cc3)=C(CC(=O)O)c3cc(F)ccc32)cc1 [A103, (Z)-2-(5-Fluoro-2-(4-(4-fluorophenoxy)benzyl)-1-(4-isopropylbenzylidene)-1H-inden-3-yl)acetic acid]	> 80%	≥ 50%	≥ 50%	≥ 50%	≥ 50%	≥ 50%	≥ 50%	≥ 50%	≥ 50%	≥ 50%	≥ 50%	≥ 50%	≥ 50%	≥ 50%	≥ 50%
CCc1ccc(/C=C2/C(Cc3ccc(Oc4ccc(F)cc4)cc3)=C(CC(=O)O)c3cc(F)ccc32)cc1 [A104, (Z)-2-(1-(4-Ethylbenzylidene)-5-fluoro-2-(4-(4-fluorophenoxy)benzyl)-1H-inden-3-yl)acetic acid]	> 80%	≥ 50%	≥ 50%	≥ 50%	≥ 50%	≥ 50%	≥ 50%	≥ 50%	≥ 50%	≥ 50%	≥ 50%	≥ 50%	≥ 50%	≥ 50%	≥ 50%
O=C(O)CC1=C(Cc2ccc(Oc3ccc(F)cc3)cc2)/C(=C/c2ccc(F)cc2)c2ccc(F)cc21 [A105, (Z)-2-(5-Fluoro-1-(4-fluorobenzylidene)-2-(4-(4-fluorophenoxy)benzyl)-1H-inden-3-yl)acetic acid]	> 80%	≥ 50%	≥ 50%	≥ 50%	≥ 50%	≥ 50%	≥ 50%	≥ 50%	≥ 50%	≥ 50%	≥ 50%	≥ 50%	≥ 50%	≥ 50%	≥ 50%
O=C(O)CC1=C(Cc2ccc(Oc3ccc(F)cc3)cc2)/C(=C/C2CC2)c2ccc(F)cc21 [A106, (Z)-2-(1-(Cyclopropylmethylene)-5-fluoro-2-(4-(4-fluorophenoxy)benzyl)-1H-inden-3-yl)acetic acid]	> 80%	< 30%	≥ 50%	< 30%	≥ 50%	< 30%	≥ 50%	30 to 50%	≥ 50%	< 30%	≥ 50%	30 to 50%	≥ 50%	30 to 50%	≥ 50%
